Columns and labels:
[1] = biological target: T1, HCV genotype 1b (BK) NS3 modified enzyme with a R155K mutation (Hepatitis C virus genotype 1b, UniProt P26663, R1181K); assay: HCV NS3 protease time-resolved fluorescence (TRF) assay, genotype 1b R155K; assay type: biochemical; details: Ki 1b R155K
T1 construct: HCV genotype 1b (BK) NS3 modified enzyme
Procedure, shortened: (§1)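 Pre-incubation of NS3/NS4A protease with inhibitor for 10 min in pH 7.5 HEPES buffer with 10 mM DTT; 25 nM TRF peptide substrate, hydrolysis 6 h at room temperature. Fluorescence read at ex 340/em 615 nm with 400 μs delay, enzyme level set for S/B 5-20; IC50 by four-parameter fit.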

[2] = biological target: HCV NS3 protease genotype 3a (3A-1) (Hepatitis C virus genotype 3a, UniProt Q81258); assay: HCV NS3 protease time-resolved fluorescence (TRF) assay, genotype 3a; assay type: biochemical; details: Ki 3a
Procedure, shortened: as §1

[3] = first of two values printed in the cell (not explained)
[4] = second of two values printed in the cell (not explained)
[5] = genotype 1b (BK) NS3 R155K, single value

| Compound | Ki [1, 3] | Ki [1, 4] | Ki [2] | Ki [1, 5] |
| --- | --- | --- | --- | --- |
| C=C[C@@H]1C[C@]1(NC(=O)[C@@H]1C[C@@H]2CN1C(=O)[C@H](C1CCCCC1)NC(=O)O[C@@H]1C[C@H]1CCCCCc1c(nc3ccccc3c1OC1CC3COCC(C1)N3C(=O)OC(C)(C)C)O2)C(=O)NS(=O)(=O)C1(C)CC1 (stereo partly drawn) [Example 287, tert-butyl 7-{[(1aR,5S,8S,10R,22aR)-5-cyclohexyl-8-{[(1R,2S)-2-ethenyl-1-{[(1-methylcyclopropyl)sulfonyl]carbamoyl}cyclopropyl]carbamoyl}-3,6-dioxo-1,1a,3,4,5,6,9,10,18,19,20,21,22,22a-tetradecahydro-8H-7,10-methanocyclopropa[18,19][1,10,3,6]dioxadiazacyclononadecino[11,12-b]quinolin-17-yl]oxy}-3-oxa-9-azabicyclo[3.3.1]nonane-9-carboxylate] | 0.092 nM | 2.55 nM | 58 nM |  |
| CC1(S(=O)(=O)NC(=O)[C@@]23C[C@H]2/C=C\CCCCC[C@@H]2NC(=O)O[C@@H]4C[C@H]4CCC/C=C/c4c(nc5ccccc5c4OCCN4CCCCC4)O[C@@H]4C[C@@H](C(=O)N3)N(C4)C2=O)CC1 [Example 296, (1aR,5S,11Z,12aS,13aR,16S,19R,27E,31aR)—N-[(1-methylcyclopropyl)sulfonyl]-3,15,33-trioxo-26-[2-(piperidin-1-yl)ethoxy]-1,1a,3,4,5,6,7,8,9,10,12a,13,15,16,18,19,29,30,31,31a-icosahydro-5,17:16,19-dimethanodicyclopropa[12,13:28,29][1,20,3,14,17]dioxatriazacyclononacosino[21,22-b]quinoline-13a(14H)-carboxamide] |  |  | 6 nM | 0.27 nM |
| C=C[C@@H]1C[C@]1(NC(=O)[C@@H]1C[C@@H]2CN1C(=O)[C@H](C(C)(C)C)NC(=O)O[C@@H]1C[C@H]1CCCCCc1c(nc3ccccc3c1OCCCN1CC(OC)C1)O2)C(=O)NS(=O)(=O)C1(C)CC1 [Example 157, (1aR,5S,8S,10R,22aR)-5-tert-butyl-N-[(1R,2S)-2-ethenyl-1-{[(1-methylcyclopropyl)sulfonyl]carbamoyl}cyclopropyl]-17-[3-(3-methoxyazetidin-1-yl)propoxy]-3,6-dioxo-1,1a,3,4,5,6,9,10, 18,19,20,21,22,22a-tetradecahydro-8H-7,10-methanocyclopropa[18,19] [1,10,3,6]dioxadiazacyclononadecino [11,12-b]quinoline-8-carboxamide] |  |  | 0.76 nM | 0.049 nM |
| C=C[C@@H]1C[C@]1(NC(=O)[C@@H]1C[C@@H]2CN1C(=O)[C@H](C(C)(C)C)NC(=O)O[C@@H]1C[C@H]1CCCCCc1c(nc3ccccc3c1OC1CCN(CC)CC1)O2)C(=O)NS(=O)(=O)C1(C)CC1 [Example 229, (1aR,5S,8S,10R,22aR)-5-tert-butyl-N-[(1R,2S)-2-ethenyl-1-{[(1-methylcyclopropyl)sulfonyl]carbamoyl}cyclopropyl]-17-[(1-ethylpiperidin-4-yl)oxy]-3,6-dioxo-1,1a,3,4,5,6,9,10,18,19,20,21,22,22a-tetradecahydro-8H-7,10-methanocyclopropa[18,19][1,10,3,6] dioxadiazacyclononadecino[11,12-b]quinoline-8-carboxamide] |  |  | 0.25 nM | 0.034 nM |
| C=C[C@@H]1C[C@]1(NC(=O)[C@@H]1C[C@@H]2CN1C(=O)[C@H](C1Cc3ccccc3C1)NC(=O)O[C@@H]1C[C@H]1CCCCCc1c(nc3ccccc3c1OCCCN(C)C)O2)C(=O)NS(=O)(=O)C1(C)CC1 [Example 233, (1aR,5S,8S,10R,22aR)-5-(2,3-dihydro-1H-inden-2-yl)-17-[3-(dimethylamino)propoxy]-N-[(1R,2S)-2-ethenyl-1-{[(1-methylcyclopropyl)sulfonyl]carbamoyl}cyclopropyl]-3,6-dioxo-1,1a,3,4,5,6,9,10,18,19,20,21,22,22a-tetradecahydro-8H-7,10-methanocyclopropa[18,19][1,10,3,6]dioxadiazacyclononadecino[11,12-b]quinoline-8-carboxamide] | 0.015 nM | 0.08 nM | 4.2 nM |  |
| C=C[C@@H]1C[C@]1(NC(=O)[C@@H]1C[C@@H]2CN1C(=O)[C@H](C(C)(C)C)NC(=O)O[C@@H]1C[C@H]1CCCCCc1c(nc3ccccc3c1OCCCN1CC(C#N)C1)O2)C(=O)NS(=O)(=O)C1(C)CC1 [Example 184, (1aR,5S,8S,10R,22aR)-5-tert-butyl-17-[3-(3-cyanoazetidin-1-yl)propoxy]-N-[(1R,2S)-2-ethenyl-1-{[(1-methylcyclopropyl)sulfonyl]carbamoyl}cyclopropyl]-3,6-dioxo-1,1a,3,4,5,6,9,10, 18,19,20,21,22,22a-tetradecahydro-8H-7,10-methanocyclopropa[18,19][1,10,3,6] dioxadiazacyclononadecino[11,12-b] quinoline-8-carboxamide] |  |  | 1.1 nM | 0.057 nM |
| C=C[C@@H]1C[C@]1(NC(=O)[C@@H]1C[C@@H]2CN1C(=O)[C@H](C(C)(C)C)NC(=O)O[C@@H]1C[C@H]1CCCCCc1c(nc3ccccc3c1OC)O2)C(=O)NS(=O)(=O)C1(C)CC1 [Example 119] |  |  | 3.2 nM | 0.12 nM |
| C=C[C@@H]1C[C@]1(NC(=O)[C@@H]1C[C@@H]2CN1C(=O)[C@H](C(C)(C)C)NC(=O)O[C@@H]1C[C@H]1CCCCCc1c(nc3cc(C(C)C)ccc3c1OCCCN1C[C@@H]3C[C@H]1CO3)O2)C(=O)NS(=O)(=O)C1(C)CC1 [Example 164, (1aR,5S,8S,10R,22aR)-5-tert-butyl-N-[(1R,2S)-2-ethenyl-1-{[(1-methylcyclopropyl)sulfonyl]carbamoyl}cyclopropyl]-17-{3-[(1S,4S)-2-oxa-5-azabicyclo[2.2.1]hept-5-yl]propoxy}-3,6-dioxo-14-(propan-2-yl)-1,1a,3,4,5,6,9,10,18,19,20, 21,22,22a-tetradecahydro-8H-7,10-methanocyclopropa[18,19][1,10,3,6] dioxadiazacyclononadecino [11,12-b]quinoline-8-carboxamide] |  |  | 1.2 nM | 0.096 nM |
| C=C[C@@H]1C[C@]1(NC(=O)[C@@H]1C[C@@H]2CN1C(=O)[C@H](C1CCCCC1)NC(=O)O[C@@H]1C[C@H]1CCCCCc1c(nc3ccccc3c1OC1CCOCC1)O2)C(=O)NS(=O)(=O)C1(C)CC1 [Example 253, (1aR,5S,8S,10R,22aR)-5-cyclohexyl-N-[(1R,2S)-2-ethenyl-1-{[(1-methylcyclopropyl)sulfonyl]carbamoyl}cyclopropyl]-3,6-dioxo-17-(tetrahydro-2H-pyran-4-yloxy)-1,1a,3,4,5,6,9,10,18,19,20,21,22,22a-tetradecahydro-8H-7,10-methanocyclopropa[18,19][1,10,3,6]dioxadiazacyclononadecino[11,12-b]quinoline-8-carboxamide] | 0.026 nM | 0.265 nM | 11 nM |  |
| C=C[C@@H]1CC1(NC(=O)[C@@H]1C[C@@H]2CN1C(=O)[C@H](C1CCCCC1)NC(=O)O[C@@H]1C[C@H]1CCCCCc1c(nc3ccccc3c1OC1CCN(CCOC(F)(F)F)CC1)O2)C(=O)NS(=O)(=O)C1(C)CC1 (stereo partly drawn) [Example 262, potassium {[(1R,2S)-1-({[(1aR,5S,8S,10R,22aR)-5-cyclohexyl-3,6-dioxo-17-({1-[2-(trifluoromethoxy)ethyl]piperidin-4-yl}oxy)-1,1a,3,4,5,6,9,10,18,19,20,21,22,22a-tetradecahydro-8H-7,10-methanocyclopropa[18,19][1,10,3,6]dioxadiazacyclononadecino[11,12-b]quinolin-8-yl]carbonyl}amino)-2-ethenylcyclopropyl]carbonyl}[(1-methylcyclopropyl)sulfonyl]azanide] | 0.018 nM | 0.12 nM | 1.2 nM |  |
| C=C[C@@H]1C[C@]1(NC(=O)[C@@H]1C[C@@H]2CN1C(=O)[C@H](C(C)C)NC(=O)O[C@@H]1C[C@H]1CCCCCc1c(nc3ccccc3c1OCCN1CCOCC1)O2)C(=O)NS(=O)(=O)C1(C)CC1 [Example 124, (1aR,5S,8S,10R,22aR)-N-[(1R,2S)-2-ethenyl-1-{[(1-methylcyclopropyl)sulfonyl]carbamoyl}cyclopropyl]-17-[2-(morpholin-4-yl)ethoxy]-3,6-dioxo-5-(propan-2-yl)-1,1a,3,4,5,6,9,10,18,19,20,21,22,22a-tetradeca hydro-8H-7,10-methano cyclopropa[18,19][1,10,3,6] dioxadiazacyclonona decino[11,12-b]quinoline-8-carboxamide] |  |  | 10 nM | 0.79 nM |
| C=C[C@@H]1C[C@]1(NC(=O)[C@@H]1C[C@@H]2CN1C(=O)[C@H](C1CCCC1)NC(=O)O[C@@H]1CCC[C@H]1CC/C=C/Cc1c(nc3ccccc3c1OCCCCO)O2)C(=O)NS(=O)(=O)C1CC1 [Example 68, (3aR,7S,10S,12R,21E,24aS)-7-cyclopentyl-N-{(1R,2S)-1-[(cyclopropylsulfonyl)carbamoyl]-2-ethenylcyclopropyl}-19-(4-hydroxybutoxy)-5,8-dioxo-1,2,3,3a,5,6,7,8,11,12,20,23,24,24a-tetradecahydro-10H-9,12-methanocyclopenta[18,19][1,10,3,6]dioxadiazacyclononadecino[11,12-b]quinoline-10-carboxamide] |  |  | 1.6 nM | 0.16 nM |
| C=C[C@@H]1C[C@]1(NC(=O)[C@@H]1C[C@@H]2CN1C(=O)[C@H](C(C)(C)C)NC(=O)O[C@@H]1C[C@H]1CCCCCc1c(nc3ccccc3c1OC1CC3CCC(C1)N3CCOC)O2)C(=O)NS(=O)(=O)C1(C)CC1 (single isomer, unassigned) [Example 280] | 0.024 nM | 0.28 nM | 4.65 nM |  |
| C=C[C@@H]1C[C@]1(NC(=O)[C@@H]1C[C@@H]2CN1C(=O)[C@H](C1CCCC1)NC(=O)O[C@@H]1CCC[C@H]1CCC/C=C/Cc1c(nc3ccccc3c1O)O2)C(=O)NS(=O)(=O)C1CC1 [Example 18] |  |  | 12 nM | 0.79 nM |

Reference: patent US9328138B2 (priority 2011, dated 2016)
